Tests used:
Format in all cases: physicochemical
[1] = β cryptoxanthin stabilizing test, Example 2A (water from Citrus unshiu powder with additive L-ascorbic acid, stored at 40° C.); conditions: 0.0022 parts by mass β cryptoxanthin (powder) in water
Method: The prepared powder derived from Citrus unshiu and water were mixed. Thus, a mixed solution was prepared. The mixing was conducted so that a mass ratio between β cryptoxanthin contained in the powder and the mixed water became 1 mg:50 g (0.0022 parts by mass of β cryptoxanthin with respect to 100 parts by mass of finally obtained β cryptoxanthin-containing water). Vitamin C (L-ascorbic acid) was added to the mixed solution, which was then mixed by stirring. Thus, β cryptoxanthin-containing waters were prepared. The total amounts of L-ascorbic acid in the respective β cryptoxanthin-containing waters were set to 0.005, 0.01, 0.02, 0.1, and 0.2 parts by mass with respect to 100 parts by mass of entire β cryptoxanthin-containing water by adding vitamin C. 50 g of five types of the β cryptoxanthin-containing waters were filled in the respective brown bottles. Thereafter, the brown bottles were subjected to a heat sterilization treatment under the condition at 90° C. for 30 minutes, which were then stored at 40° C. Sampling was conducted on a storage start date and after two months from the same. The respective amounts of β cryptoxanthin in samples were measured in the same manner as in Example 1A. Then, assuming that the amount of β cryptoxanthin on the storage start date was 100%, residual ratios of β cryptoxanthin were determined.

[2] = Storage stability at 20° C. and 25° C. calculated by Arrhenius equation, Example 4A; conditions: for possible storage period in the stable state: β cryptoxanthin-containing waters of Example 1A, 2A, and 3A, from storage at 40° C. for 2 months
Method: With respect to each of the β cryptoxanthin-containing waters prepared in Examples 1A, 2A, and 3A, storage stability at 20° C. and 25° C. was determined.
The storage stability was calculated by the following method with reference to the publication below. Conditions were described in the publication, hereby incorporated herein by reference. • Sumie Yoshioka (1995), “Iyakuhin no Anzensei—yoriyoi Kaihatsu to Hyoka notameno Kiso kara Jissai made—(Drug safety—principles and practices for improving development and evaluation—), Nankodo Co., Ltd.
Specifically, a graph of FIG. 185 on page 95 of the publication was cited. FIG. 1 is an Arrhenius plot of degradation of thiamine hydrochloride in a vitamin complex liquid agent, the Y axis indicates log Kobs (day^−1), and the X axis indicates 1/T (K^1). The stable periods were calculated based on the activation energy for degradation of thiamine hydrochloride in the vitamin complex liquid agent, shown in the graph.
In FIG. 1, the Y axis is indicated by not ln, but log. Therefore log Kobs was converted into ln k.
Then, −Ea/R and ln A were calculated from the ln k and 1/T (K^−1) on the X axis of FIG. 1 based on the Arrhenius equation represented by the formula (1) below.

[3] = β cryptoxanthin stabilizing test, Example 1B (water from paste, varied β cryptoxanthin concentration, stored at 45° C.)
Method: (§1) The prepared paste derived from Citrus unshiu and water were mixed. Thus, β cryptoxanthin-containing waters were prepared. In the mixing, concentrations of the β cryptoxanthin were set to predetermined parts by mass with respect to 100 parts by mass of a combination of the water and components contained in the water. The predetermined parts by mass were 0.0031, 0.0044, 0.0062, 0.0086, 0.0176, and 0.0244 parts by mass. Thus, six types of β cryptoxanthin-containing waters each having a different concentration of the β cryptoxanthin were prepared. Each of the β cryptoxanthin-containing waters was sufficiently stirred. Thereafter 90 g of the resultant β cryptoxanthin-containing water was filled in an aluminum pouch, which was then sterilized under the condition at 85° C. for 30 minutes. As a comparative example, two types of β cryptoxanthin-containing waters were prepared in the same manner as described above except that the concentrations of the β cryptoxanthin were set to 0.0011 and 0.0016 parts by mass.
(§2) Six types of the β cryptoxanthin-containing waters of the example and two types of β cryptoxanthin-containing waters of the comparative example were stored at 45° C. for one month. Sampling was conducted on a storage start date and after one month from the storage start date. The respective amounts of β cryptoxanthin in samples were measured by HPLC as shown below. Then, assuming that the amount of β cryptoxanthin on the storage start date was 100%, residual ratios of β cryptoxanthin were determined.
The samples were treated at 70° C. for 30 minutes under alkaline conditions before being subjected to HPLC. By this treatment, β cryptoxanthin in the samples was saponified and was converted to a free form. After the treatment, the samples were subjected to a liquid-liquid extraction and were then concentrated. Concentrated samples thus obtained were used as samples for HPLC.
In the measurements of the amounts of β cryptoxanthin by HPLC, a HPLC system to which a column (J′sphere ODS-M80 (product name) with 250×4.6 mm I.D, produced by YMC Co., Ltd.) had been connected was used, and absorbances at 455 nm were measured by a UV detector (L-4200H (product name), produced by Hitachi Ltd.). Conditions of the column were as follows. • Mobile phase: acetonitrile/tetrahydrofuran (volume ratio: 95/5) containing 0.1% acetic acid and 50 ppm of α-tocopherol • Flow rate: 1.0 mL/minute • Column temperature: 55° C.

[4] = β cryptoxanthin stabilizing test, Example 3B (water from concentrated liquid, varied β cryptoxanthin concentration, stored at 45° C.)
Method: as §1, with “concentrated liquid” for “paste”, “0.0007, 0.0015, 0.0025, 0.0053,” for “0.0031, 0.0044, 0.0062, 0.0086, 0.0176,”, “0.0072” for “0.0244”, “five” for “six”, “minutes.” for “minutes. As a comparative example, two types of β cryptoxanthin-containing waters were prepared in the same manner as described above except that the concentrations of the β cryptoxanthin were set to 0.0011 and 0.0016 parts by mass.”
as §2, with “Five” for “Six”, “the” for “the example and two types of β cryptoxanthin-containing waters of the comparative”, “HPLC in the same manner” for “HPLC”, “in Example 1B.” for “shown below.”

CC1=C(/C=C/C(C)=C/C=C/C(C)=C/C=C/C=C(C)/C=C/C=C(C)/C=C/C2=C(C)C[C@@H](O)CC2(C)C)C(C)(C)CCC1 [β cryptoxanthin]
Residual ratio of β cryptoxanthin Storage for two months (%) ([1]; additive L-ascorbic acid 0.005 parts by mass): 62.5%
Residual ratio of β cryptoxanthin Storage for two months (%) ([1]; additive L-ascorbic acid 0.01 parts by mass): 75.5%
Residual ratio of β cryptoxanthin Storage for two months (%) ([1]; additive L-ascorbic acid 0.02 parts by mass): 92.0%
Residual ratio of β cryptoxanthin Storage for two months (%) ([1]; additive L-ascorbic acid 0.1 parts by mass): 100%
Residual ratio of β cryptoxanthin Storage for two months (%) ([1]; additive L-ascorbic acid 0.2 parts by mass): 31.9%
storage in a stable state at normal temperature ([2]; Example 4A, normal temperature (20° C. to 25° C.)): two years or more
possible storage period in the stable state ([2]; 20° C.): about 34 months
possible storage period in the stable state ([2]; 25° C.): about 16.2 months
Residual ratio of β cryptoxanthin Storage for one month (%) ([3]; Comparative Example, β cryptoxanthin 0.0011 parts by mass (paste) in water): 52.5%
Residual ratio of β cryptoxanthin Storage for one month (%) ([3]; Comparative Example, β cryptoxanthin 0.0016 parts by mass (paste) in water): 59.0%
Residual ratio of β cryptoxanthin Storage for one month (%) ([3]; Example, β cryptoxanthin 0.0031 parts by mass (paste) in water): 84.8%
Residual ratio of β cryptoxanthin Storage for one month (%) ([3]; Example, β cryptoxanthin 0.0044 parts by mass (paste) in water): 87.8%
Residual ratio of β cryptoxanthin Storage for one month (%) ([3]; Example, β cryptoxanthin 0.0062 parts by mass (paste) in water): 97.0%
Residual ratio of β cryptoxanthin Storage for one month (%) ([3]; Example, β cryptoxanthin 0.0086 parts by mass (paste) in water): 95.3%
Residual ratio of β cryptoxanthin Storage for one month (%) ([3]; Example, β cryptoxanthin 0.0176 parts by mass (paste) in water): 93.2%
Residual ratio of β cryptoxanthin Storage for one month (%) ([3]; Example, β cryptoxanthin 0.0244 parts by mass (paste) in water): 105.9%
Residual ratio of β cryptoxanthin Storage for one month (%) ([4]; β cryptoxanthin 0.0007 parts by mass (concentrated liquid) in water): 42.6%
Residual ratio of β cryptoxanthin Storage for one month (%) ([4]; β cryptoxanthin 0.0015 parts by mass (concentrated liquid) in water): 78.0%
Residual ratio of β cryptoxanthin Storage for one month (%) ([4]; β cryptoxanthin 0.0025 parts by mass (concentrated liquid) in water): 95.8%
Residual ratio of β cryptoxanthin Storage for one month (%) ([4]; β cryptoxanthin 0.0053 parts by mass (concentrated liquid) in water): 96.6%
Residual ratio of β cryptoxanthin Storage for one month (%) ([4]; β cryptoxanthin 0.0072 parts by mass (concentrated liquid) in water): 100.8%

Reference: patent US20120156333A1, “STABILIZED BETA CRYPTOXANTHIN-CONTAINING WATER AND THE USE THEREOF” (ARKRAY, INC., priority 2010, published 2012)
